# Assay results taken from patent US7820711B2, “Uses of selective inhibitors of HDAC8 for treatment of T-cell proliferative disorders” (Pharmacyclics Inc., priority 2006, dated 2010).
# T1: HDAC-6 (Homo sapiens, UniProt Q9UBN7)
# T1 sequence (Q9UBN7 1-1215): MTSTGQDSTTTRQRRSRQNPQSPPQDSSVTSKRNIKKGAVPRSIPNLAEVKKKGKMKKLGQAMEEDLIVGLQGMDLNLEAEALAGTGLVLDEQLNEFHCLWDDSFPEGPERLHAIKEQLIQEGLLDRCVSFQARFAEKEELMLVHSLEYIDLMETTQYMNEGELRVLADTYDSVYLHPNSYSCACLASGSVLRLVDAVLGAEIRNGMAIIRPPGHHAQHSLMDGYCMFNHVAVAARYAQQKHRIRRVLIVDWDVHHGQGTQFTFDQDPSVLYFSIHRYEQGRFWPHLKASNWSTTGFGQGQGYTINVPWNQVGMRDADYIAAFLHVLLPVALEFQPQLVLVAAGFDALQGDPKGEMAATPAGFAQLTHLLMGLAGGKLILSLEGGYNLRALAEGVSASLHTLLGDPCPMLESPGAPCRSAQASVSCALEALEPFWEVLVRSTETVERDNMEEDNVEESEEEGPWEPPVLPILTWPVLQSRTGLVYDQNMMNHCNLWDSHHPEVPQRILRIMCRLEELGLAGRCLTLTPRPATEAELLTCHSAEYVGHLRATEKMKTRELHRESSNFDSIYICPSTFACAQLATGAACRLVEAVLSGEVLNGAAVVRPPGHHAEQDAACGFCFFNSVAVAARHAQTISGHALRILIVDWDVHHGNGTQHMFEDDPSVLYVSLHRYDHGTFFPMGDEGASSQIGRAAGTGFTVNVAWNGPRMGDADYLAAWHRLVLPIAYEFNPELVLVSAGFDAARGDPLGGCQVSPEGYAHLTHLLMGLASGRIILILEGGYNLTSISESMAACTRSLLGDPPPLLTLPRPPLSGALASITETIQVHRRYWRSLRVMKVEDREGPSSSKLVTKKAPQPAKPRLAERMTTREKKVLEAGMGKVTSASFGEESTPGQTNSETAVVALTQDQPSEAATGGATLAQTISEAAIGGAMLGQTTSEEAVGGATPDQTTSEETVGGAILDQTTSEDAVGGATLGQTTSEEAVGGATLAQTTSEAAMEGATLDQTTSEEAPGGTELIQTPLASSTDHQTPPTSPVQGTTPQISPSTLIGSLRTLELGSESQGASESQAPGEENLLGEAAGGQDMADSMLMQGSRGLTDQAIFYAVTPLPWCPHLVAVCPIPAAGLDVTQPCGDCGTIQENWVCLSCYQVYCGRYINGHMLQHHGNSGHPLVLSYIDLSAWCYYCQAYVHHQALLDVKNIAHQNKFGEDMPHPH
# T2: HDAC-8 (Homo sapiens, UniProt Q9BY41)
# T2 sequence (Q9BY41 1-377): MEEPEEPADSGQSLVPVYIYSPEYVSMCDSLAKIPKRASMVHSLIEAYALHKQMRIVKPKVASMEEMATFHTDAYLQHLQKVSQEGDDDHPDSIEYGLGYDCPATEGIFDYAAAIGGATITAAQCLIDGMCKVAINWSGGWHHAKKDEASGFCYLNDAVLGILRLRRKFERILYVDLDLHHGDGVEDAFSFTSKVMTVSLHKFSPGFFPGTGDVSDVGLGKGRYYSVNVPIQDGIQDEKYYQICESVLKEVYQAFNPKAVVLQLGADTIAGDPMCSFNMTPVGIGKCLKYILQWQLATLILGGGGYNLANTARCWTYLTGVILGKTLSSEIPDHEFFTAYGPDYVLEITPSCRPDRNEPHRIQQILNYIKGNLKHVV
# T3: HDAC-10 (Homo sapiens, UniProt Q969S8)
# T3 sequence (Q969S8 1-669): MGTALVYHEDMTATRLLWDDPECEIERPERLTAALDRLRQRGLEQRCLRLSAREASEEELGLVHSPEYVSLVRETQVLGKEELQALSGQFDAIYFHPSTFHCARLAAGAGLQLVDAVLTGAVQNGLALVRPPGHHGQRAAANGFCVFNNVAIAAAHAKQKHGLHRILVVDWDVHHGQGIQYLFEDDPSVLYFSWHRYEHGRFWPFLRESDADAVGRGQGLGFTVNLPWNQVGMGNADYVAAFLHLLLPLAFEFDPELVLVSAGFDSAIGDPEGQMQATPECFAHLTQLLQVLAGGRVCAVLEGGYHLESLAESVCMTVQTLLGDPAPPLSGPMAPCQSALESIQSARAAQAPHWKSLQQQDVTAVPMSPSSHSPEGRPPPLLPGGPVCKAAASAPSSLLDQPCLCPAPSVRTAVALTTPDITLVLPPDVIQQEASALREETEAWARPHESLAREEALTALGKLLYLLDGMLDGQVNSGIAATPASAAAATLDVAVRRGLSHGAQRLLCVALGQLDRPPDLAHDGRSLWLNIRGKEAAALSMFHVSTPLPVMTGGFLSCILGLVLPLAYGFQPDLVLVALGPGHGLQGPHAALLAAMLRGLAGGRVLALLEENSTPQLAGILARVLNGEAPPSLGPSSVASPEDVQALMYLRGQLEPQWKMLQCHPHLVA
# What was measured:
# [1] = tested on: Jurkat cells; assay: modulation of Compound 23-induced apoptosis in Jurkat cells; details: compound 23 10 μM
# [2] = tested on: Jurkat cells; assay: ratiometric fluorescence calcium imaging, Jurkat cells; type: cell-based, human; details: for intracellular calcium mobilization / time to rise in intracellular calcium: 10 μM, FIG. 10; for dose dependence of calcium mobilization: FIGS. 12 and 13; for effect on compound 23-stimulated increase in intracellular Ca2+ levels: FIG. 11
# [3] = tested on: PLC-γ1-deficient Jurkat J.γ1 cells; assay: ratiometric fluorescence calcium imaging, J.γ1 cells; type: cell-based, human; details: FIG. 14
# [4] = tested on: Ramos cells; assay: ratiometric fluorescence calcium imaging, Ramos cells; type: cell-based; details: FIG. 15
# [5] = tested on: Ramos cells; assay: apoptosis in Ramos cells; type: cell-based
# [6] = tested on: J.g1 (Phospholipase C-g1 deficient Jurkat); assay: Apoptosis in J.g1 cells
# [7] = tested on: P116 (ZAP-70 deficient Jurkat); assay: Apoptosis in P116 cells
# [8] = tested on: Jurkat WT; assay: Apoptosis in Jurkat WT cells
# [9] = tested on: J.RT3-T.5 (TCR-b chain deficient Jurkat); assay: Apoptosis in J.RT3-T.5 cells
# [10] = tested on: PLC-deficient J.γ1 Jurkat cells; assay: cytochrome C translocation from mitochondria to cytosol, J.γ1 Jurkat; details: HDAC inhibitors 12 or 24 hours, FIG. 9
# [11] = tested on: wild type Jurkat cells; assay: cytochrome C translocation from mitochondria to cytosol, wild type Jurkat; details: HDAC inhibitors 12 or 24 hours, FIG. 9
# [12] = biological target: HDAC-1 (Homo sapiens, UniProt Q13547); assay: in vitro HDAC inhibition, HDAC-1; type: biochemical
# [13] = biological target: HDAC-2 (Homo sapiens, UniProt Q92769); assay: in vitro HDAC inhibition, HDAC-2; type: biochemical
# [14] = biological target: HDAC-3 (Homo sapiens, UniProt O15379); assay: in vitro HDAC inhibition, HDAC-3; type: biochemical
# [15] = biological target: T1, HDAC-6; assay: in vitro HDAC inhibition, HDAC-6; type: biochemical
# [16] = biological target: T2, HDAC-8; assay: in vitro HDAC inhibition, HDAC-8; type: biochemical
# [17] = biological target: T3, HDAC-10; assay: in vitro HDAC inhibition, HDAC-10; type: biochemical
# Sequence of HDAC-1 (Q13547 whole entry): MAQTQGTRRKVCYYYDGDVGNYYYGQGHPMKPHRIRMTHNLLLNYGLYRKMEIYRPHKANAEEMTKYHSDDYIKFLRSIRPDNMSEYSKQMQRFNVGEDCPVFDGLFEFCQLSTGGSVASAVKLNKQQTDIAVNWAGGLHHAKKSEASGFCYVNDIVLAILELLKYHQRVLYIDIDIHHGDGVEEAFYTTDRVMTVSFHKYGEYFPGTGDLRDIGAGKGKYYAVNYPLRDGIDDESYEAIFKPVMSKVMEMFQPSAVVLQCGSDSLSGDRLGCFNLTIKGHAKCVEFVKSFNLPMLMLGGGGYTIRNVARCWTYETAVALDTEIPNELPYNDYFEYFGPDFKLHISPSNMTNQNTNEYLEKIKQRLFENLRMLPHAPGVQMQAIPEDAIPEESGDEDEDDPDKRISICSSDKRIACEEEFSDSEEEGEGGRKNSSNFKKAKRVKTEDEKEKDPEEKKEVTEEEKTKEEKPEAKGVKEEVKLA
# Sequence of HDAC-3 (O15379 whole entry): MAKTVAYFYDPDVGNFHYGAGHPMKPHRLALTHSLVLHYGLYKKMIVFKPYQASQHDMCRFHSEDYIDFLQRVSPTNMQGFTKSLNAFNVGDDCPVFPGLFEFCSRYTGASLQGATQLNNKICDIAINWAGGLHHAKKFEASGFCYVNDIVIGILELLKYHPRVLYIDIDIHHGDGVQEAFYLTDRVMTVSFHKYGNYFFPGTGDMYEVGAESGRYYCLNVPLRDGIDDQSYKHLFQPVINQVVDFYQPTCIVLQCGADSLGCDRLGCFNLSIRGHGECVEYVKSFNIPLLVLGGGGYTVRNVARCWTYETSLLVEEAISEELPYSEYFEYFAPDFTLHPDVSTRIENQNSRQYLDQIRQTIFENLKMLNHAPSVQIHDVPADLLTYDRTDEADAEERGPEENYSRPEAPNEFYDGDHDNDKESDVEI
# Sequence of HDAC-3 (Q9Y618 395-489 partner limits assumed): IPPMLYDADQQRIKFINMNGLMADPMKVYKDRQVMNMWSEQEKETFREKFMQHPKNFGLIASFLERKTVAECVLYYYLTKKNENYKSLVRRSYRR
# Sequence of HDAC-2 (Q92769 whole entry): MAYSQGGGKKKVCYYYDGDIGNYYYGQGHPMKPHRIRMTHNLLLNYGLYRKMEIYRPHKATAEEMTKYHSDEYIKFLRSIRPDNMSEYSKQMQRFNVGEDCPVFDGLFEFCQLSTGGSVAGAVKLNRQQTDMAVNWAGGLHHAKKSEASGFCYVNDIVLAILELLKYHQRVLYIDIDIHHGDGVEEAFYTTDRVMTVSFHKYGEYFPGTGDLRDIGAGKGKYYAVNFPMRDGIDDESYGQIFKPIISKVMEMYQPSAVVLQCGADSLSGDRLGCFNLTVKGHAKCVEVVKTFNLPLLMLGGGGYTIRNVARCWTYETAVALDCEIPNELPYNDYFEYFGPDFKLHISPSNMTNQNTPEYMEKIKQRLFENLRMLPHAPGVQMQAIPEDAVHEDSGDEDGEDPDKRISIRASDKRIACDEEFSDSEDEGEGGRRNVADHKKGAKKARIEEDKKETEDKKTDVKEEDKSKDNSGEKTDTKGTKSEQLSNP
molecule,measurement,setting,value
CC(=O)OCOC(=O)CN(CC(=O)OCOC(C)=O)c1ccccc1OCCOc1ccccc1N(CC(=O)OCOC(C)=O)CC(=O)OCOC(C)=O [BAPTA-AM],effect on Compound 23-induced apoptosis,"[1]; BAPTA-AM 0.5 μM, FIG. 8(B)",diminished apoptosis
CN(C)Cc1c(C(=O)NCCOc2ccc(C(=O)NO)cc2)oc2ccccc12 [CRA-024781],intracellular calcium mobilization,[2],sustained rise in intracellular calcium
same,time to rise in intracellular calcium,[2],approximately 1 minute
same,dose dependence of calcium mobilization,[2],dose dependent
same,effect on intracellular Ca2+,[3],completely abolished
same,intracellular calcium levels,[4],robust increase
"COc1ccc(Cn2ccc3ccc(C(=O)NO)cc32)cc1 [Compound 23, 1-(4-methoxy-phenylmethyl)-1H-indole-6-carboxylic acid hydroxyamide]",intracellular calcium mobilization,[2],sustained rise in intracellular calcium
same,time to rise in intracellular calcium,[2],approximately 1 minute
same,dose dependence of calcium mobilization,[2],dose dependent
same,effect on intracellular Ca2+,[3],completely abolished
same,intracellular calcium levels,[4],did not alter resting calcium levels
same,induction of apoptosis,[5],failure to induce apoptosis
same,Apoptosis at 5 μM,[6],12%
same,Apoptosis at 5 μM,[7],82%
same,Apoptosis at 5 μM,[8],43%
same,Apoptosis at 5 μM,[9],67%
same,cytochrome C translocation from mitochondria to cytosol,[10],failed to alter the localization
same,cytochrome C translocation from mitochondria to cytosol,[11],induced translocation
"Cn1cc(Cc2ccc(F)cc2)c2cc(C(=O)NO)ccc21 [Compound 33, 1-methyl-3-(4-fluoro-phenylmethyl)-1H-indole-5-carboxylic acid hydroxyamide]",IC50,[12],2600 nM
same,IC50,[13],23000 nM
same,IC50,[14],1500 nM
same,IC50,[15],360 nM
same,IC50,[16],24 nM
same,HDAC8 IC50 fold lower than the next lowest HDAC target IC50,"[16]; vs HDACs 1, 2, 3, 6, 10",~15 fold
same,IC50,[17],5300 nM
COc1ccc2c(c1)CC[C@@H]1[C@@H]2CC[C@]2(C)[C@@H](NCCCCCCN3C(=O)C=CC3=O)CC[C@@H]12 [Compound U-73122],effect on compound 23-stimulated increase in intracellular Ca2+ levels,[2],strongly inhibited
same,effect on Compound 23-induced apoptosis,[1]; FIG. 7,inhibited Compound 23-induced apoptosis in a dose-dependent manner
COc1ccc2c(c1)CC[C@@H]1[C@@H]2CC[C@]2(C)[C@@H](NCCCCCCN3C(=O)CCC3=O)CC[C@@H]12 [Compound U-73343],effect on compound 23-stimulated increase in intracellular Ca2+ levels,[2],not
same,effect on Compound 23-induced apoptosis,[1]; FIG. 7,failed to block
C/C=C(/C)C(=O)O[C@H]1C(C)=C2[C@H]([C@@H]1OC(=O)CCCCCCC)[C@@](C)(OC(C)=O)C[C@H](OC(=O)CCC)[C@@]1(O)[C@H]2OC(=O)[C@@]1(C)O [thapsigargin],effect on Compound 23-induced apoptosis,"[1]; thapsigargin 0.2 μM, FIG. 8(A)",enhanced apoptosis
"FasL: a pro-apoptotic protein (protein, UniProt P48023 130-281, looked up) Tumor necrosis factor ligand …: QIGHPSPPPEKKELRKVAHLTGKSNSRSMPLEWEDTYGIVLLSGVKYKKGGLVINETGLYFVYSKVYFRGQSCNNLPLSHKVYMRNSKYPQDLVMMEGKMMSYCTTGQMWARSSYLGAVFNLTSADHLYVNVSELSLVNFEESQTFFGLYKL",cytochrome C translocation from mitochondria to cytosol,[10],effectively induced translocation
same,cytochrome C translocation from mitochondria to cytosol,[11],effectively induced translocation
